Our source for the IC50 and melting point values is US6340670B1, “Acetal benzylmaltosides as inhibitors of smooth muscle cell proliferation” (American Home Products Corporation, priority 1998, dated 2002).

Where two headings read alike, the source gives them in different places.

Series [1] concerns Porcine Smooth Muscle Cell. Nature of the series: Effects of Compounds on Cell Proliferation Using 3H Thymidine Incorporation. It counts as cell-based. The following applies: serum/growth factor stimulated cells, 24-36 h incubation, read-out: Porcine Smooth Muscle Cell Antiproliferation IC50. In outline:
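Early-passage (3-7) sub-confluent smooth muscle cells, serum-starved 24-48 h, were stimulated with growth factor or serum and treated with compound (1 to 100 μM, from 50% ethanol stock) for 24-36 h at 37° C. Proliferation by ^3H-thymidine incorporation into TCA-insoluble material, triplicate, relative to maximally stimulated cells (100%); given as IC50 or % inhibition.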

One may read the melting point as the temperature, or range, at which the solid turns liquid. Consider `CC(=O)Nc1cc(COC2OC(COC(=O)C(c3ccccc3)c3ccccc3)C(OC3OC4COC(c5ccccc5)OC4C(O)C3O)C(O)C2O)ccc1Cl` (stereo not shown) [Example 50, Diphenyl-acetic acid 6-(3-acetylamino-4-chloro-benzyloxy)-3-(7,8-dihydroxy-2-phenyl-hexahydro-pyrano[3,2-d][1,3]dioxin-6-yloxy)-4,5-dihydroxy-tetrahydro-pyran-2-ylmethyl ester], for which the melting point was > 106 °C (dec.). The IC50 in series [1] (Sus scrofa) is 84 nM.

Consider `COc1ccc(CC(=O)OCC2OC(OCc3ccc(Cl)c(NC(C)=O)c3)C(O)C(O)C2OC2OC3COC(c4ccccc4)OC3C(O)C2O)cc1OC` (stereo not shown) [Example 52, (3,4-Dimethoxy-phenyl)-acetic acid 6-(3-acetylamino-4-chloro-benzyloxy)-3-(7,8-dihydroxy-2-phenyl-hexahydro-pyrano[3,2-d][1,3]dioxin-6-yloxy)-4,5-dihydroxy-tetrahydro-pyran-2-ylmethyl ester], for which the melting point was > 116 °C (dec.). Also, the IC50 in series [1] (Sus scrofa) stood at 48 nM.

With `COc1ccc(C(=O)OCC2OC(OCc3ccc(Cl)c(NC(C)=O)c3)C(OC(C)=O)C(OC(C)=O)C2OC2OC3COC(c4ccccc4)OC3C(OC(C)=O)C2OC(C)=O)cc1` (stereo not shown) [Example 35, 4-Methoxy-benzoic acid 4,5-diacetoxy-6-(3-acetylamino-4-chloro-benzyloxy)-3-(7,8-diacetoxy-2-phenyl-hexahydro-pyrano[3,2-d][1,3]dioxin-6-yloxy)-tetrahydro-pyran-2-ylmethyl ester], the melting point is > 110 °C (dec.). Moreover, the IC50 in series [1] (Sus scrofa) was found to be 851 nM.

`CC(=O)Nc1cc(COC2OC(COC(=O)c3ccc(Cl)cc3)C(OC3OC4COC(c5ccccc5)OC4C(OC(C)=O)C3OC(C)=O)C(OC(C)=O)C2OC(C)=O)ccc1Cl` (stereo not shown) [Example 37, 4-Chloro-benzoic acid 4,5-diacetoxy-6-(3-acetylamino-4-chloro-benzyloxy)-3-(7,8-diacetoxy-2-phenyl-hexahydro-pyrano[3,2-d][1,3]dioxin-6-yloxy)-tetrahydro-pyran-2-ylmethyl ester] came in with a melting point of 114 to 115 °C. For the same compound, the IC50 in series [1] (Sus scrofa) was 588 nM.

With `CC(=O)Nc1cc(COC2OC(COC(=O)c3cccnc3)C(OC3OC4COC(c5ccccc5)OC4C(OC(C)=O)C3OC(C)=O)C(OC(C)=O)C2OC(C)=O)ccc1Cl` (stereo not shown) [Example 55, Nicotinic acid 4,5-diacetoxy-6-(3-acetylamino-4-chloro-benzyloxy)-3-(7,8-diacetoxy-2-phenyl-hexahydro-pyrano[3,2-d][1,3]dioxin-6-yloxy)-tetrahydro-pyran-2-ylmethyl ester], the melting point is > 112 °C (dec.). In addition, the IC50 in series [1] (Sus scrofa) turned out to be 304 nM. For `O=C(OCC1OC(OCc2ccc(Cl)c([N+](=O)[O-])c2)C(O)C(O)C1OC1OC2COC(c3ccccc3)OC2C(O)C1O)c1cccnc1` (stereo not shown) [Example 32, Nicotinic acid 6-(4-chloro-3-nitro-benzyloxy)-3-(7,8-dihydroxy-2-phenyl-hexahydro-pyrano[3,2-d][1,3]dioxin-6-yloxy)-4,5-dihydroxy-tetrahydro-pyran-2-ylmethyl ester] the same measures were > 105 °C (dec.) and 405 nM. Turning to `COc1ccc(CC(=O)OCC2OC(OCc3ccc(Cl)c(NC(C)=O)c3)C(OC(C)=O)C(OC(C)=O)C2OC2OC3COC(c4ccccc4)OC3C(OC(C)=O)C2OC(C)=O)cc1OC` (stereo not shown) [Example 53, (3,4-Dimethoxy-phenyl)-acetic acid 4,5-diacetoxy-6-(3-acetylamino-4-chloro-benzyloxy)-3-(7,8-diacetoxy-2-phenyl-hexahydro-pyrano[3,2-d][1,3]dioxin-6-yloxy)-tetrahydro-pyran-2-ylmethyl ester], the melting point is > 98 °C (dec.). Further, the IC50 in series [1] (Sus scrofa) was 266 nM. For `CC(=O)Nc1cc(COC2OC(COC(=O)C(c3ccccc3)c3ccccc3)C(OC3OC4COC(c5ccccc5)OC4C(OC(C)=O)C3OC(C)=O)C(OC(C)=O)C2OC(C)=O)ccc1Cl` (stereo not shown) [Example 51, Diphenyl-acetic acid 4,5-diacetoxy-6-(3-acetylamino-4-chloro-benzyloxy)-3-(7,8-diacetoxy-2-phenyl-hexahydro-pyrano[3,2-d][1,3]dioxin-6-yloxy)-tetrahydro-pyran-2-ylmethyl ester], the melting point was > 99 °C (dec.). Also, the IC50 in series [1] (Sus scrofa) came out at 354 nM. Taken in the same sequence, the figures for `CC(=O)Nc1cc(COC2OC(COC(=O)c3ccc(Cl)cc3)C(OC3OC4COC(c5ccccc5)OC4C(O)C3O)C(O)C2O)ccc1Cl` (stereo not shown) [Example 36, 4-Chloro-benzoic acid 6-(3-acetylamino-4-chloro-benzyloxy)-3-(7,8-dihydroxy-2-phenyl-hexahydro-pyrano[3,2-d][1,3]dioxin-6-yloxy)-4,5-dihydroxy-tetrahydro-pyran-2-ylmethyl ester] were > 113 °C (dec.) and 89 nM.

As to `COc1ccc(C(=O)OCC2OC(OCc3ccc(Cl)c(NC(C)=O)c3)C(O)C(O)C2OC2OC3COC(c4ccccc4)OC3C(O)C2O)cc1` (stereo not shown) [Example 34, 4-Methoxy-benzoic acid 6-(3-acetylamino-4-chloro-benzyloxy)-3-(7,8-dihydroxy-2-phenyl-hexahydro-pyrano[3,2-d][1,3]dioxin-6-yloxy)-4,5-dihydroxy-tetrahydro-pyran-2-ylmethyl ester], the melting point is > 117 °C (dec.). Moreover, the IC50 in series [1] (Sus scrofa) is 61 nM.

Turning to “Benzoic acid 6-(3-acetylamino-4-chloro-benzoyloxy)-3-(7,8-dihydroxy-2-pyridin-4-yl-hexahydro-pyrano[3,2-d][1,3]dioxin-6-yloxy)-4,5-dihydroxy-tetrahydro-pyran-2-ylmethyl ester [Example 23]”, in series [1], the IC50 came out at 3 nM. The same measure, in the same setting: in the case of `OCC1OC(OCc2ccc(Cl)cc2)C(O)C(O)C1OC1OC2COC(c3ccccc3)OC2C(O)C1O` [Example 68, (4-Chloro)-benzyl-4′,6′-O-benzylidene-β-D-maltoside] it was 25300 nM; in that of `CC(=O)Nc1cc(COC2OC(COC(=O)c3ccccc3)C(OC3OC4COC(C)OC4C(O)C3O)C(O)C2O)ccc1Cl` [Example 2, (R)-N-[5-[[[6-O-Benzoyl-4-O-(4,6-O-ethylidene-α-D-glucopyranosyl)-β-D-glucopyranosyl]oxy]methyl]-2-chlorophenyl]acetamide], 103 nM. As for `CC(=O)Nc1cc(CO[C@@H]2O[C@H](COC(=O)c3ccccc3)[C@@H](O[C@@H]3O[C@@H]4CO[C@@H](c5ccccc5)O[C@H]4[C@H](OC(C)=O)[C@H]3OC(C)=O)[C@H](OC(C)=O)[C@H]2OC(C)=O)ccc1Cl` [Example 27, (R)-N-[2-Chloro-5-[[[2,3-di-O-acetyl-6-O-benzoyl-4-O-[2,3-di-O-acetyl-4,6-O-(phenylmethylene)-β-D-glucopyranoysl]-β-D-glucopyranosyl]oxy]-methyl]-phenyl]acetamide], in series [1], the IC50 stood at 70 nM.

Turning to `CC(=O)Nc1cc(COC2OC(COC(=O)c3cccc(I)c3)C(OC3OC4COC(c5ccccc5)OC4C(O)C3O)C(O)C2O)ccc1Cl` [Example 44, N-{5-[(4′,6′-O-Benzylidene-6-O-(3-iodo)-benzoyl-β-D-maltosyl)-oxy-methyl]-2-chloro-phenyl}-acetamide], the IC50 in series [1] was 62 nM.
